Where two headings read alike, the source gives them in different places.
Tests used:
[1] = target: DAGLα (hDAGLα-FLAG) (Homo sapiens (Human), UniProt Q9Y4D2); assay: competitive ABPP, membrane proteome of transfected HEK293T cells; type: biochemical; conditions: for inhibition at 0.0032 µM: 3.2 nM, read-out: DAGLα % inh. 3.2 nM
Method: (§1) Compounds 19 and 20 were tested for in vitro inhibition of DAGLα and DAGLβ as measured by competitive activity-based protein profiling (ABPP) of […] using a HT-01 probe (targets DAGLα and DAGLβ) and a FP-Rh probe (targets serine hydrolases).
(§2) Briefly, membrane proteome (1 mg/ml, 20 μL) was prepared from HEK293T cells (transiently transfected with hDAGLα-FLAG or hDAGLα-S472A-FLAG, hDAGLβ-FLAG or hDAGLβ-S443A-FLAG) as described in Example 16. The proteome was incubated at room temperature with vehicle (DMSO) or compound in 0.5 μL DMSO for 30 min. The membrane proteome sample was subsequently treated for 30 min with HT-01 probe (1 μM) or FP-Rh probe (1 μM). The reactions were quenched with 10 μL 3× Laemmli sample buffer (final concentrations: 60 mM Tris-Cl pH 6.8, 2% (w/v) SDS, 10% (v/v) glycerol, 5% (v/v) (3-mercaptoethanol, 0.01% (v/v) bromophenol blue). The samples were directly loaded and resolved on SDS page gel (10% acrylamide). The gels were scanned using a ChemiDoc MP system (Cy3 settings, 605/50 filter).
(§3) The resolved proteins were transferred from the gels to a polyvinyldifluoride membrane for Western Blotting using a Trans-Blot® Turbo (BioRad). FLAG-tagged enzymes were stained using rabbit anti-FLAG as primary antibody, and goat-anti-rabbit HRP as secondary antibody. The blot was developed in the dark using a 10 mL luminal solution, 100 μL ECL enhancer and 3 μL H2O2. Chemiluminescence was visualized using a ChemiDoc XRS (BioRad).
(§4) The percentage of DAGL activity remaining in the assayed samples was determined by measuring the integrated optical intensity of the fluorescent protein bands of the Western Blot using image lab 4.1. The relative intensity was compared to the vehicle (DMSO) treated proteins, which were set to 100%. IC50 values were determined by plotting a log(inhibitor) vs. normalized response (Variable slope) dose-response curve generated using Prism software (GraphPad).

[2] = target: DAGLβ (hDAGLβ-FLAG) (Homo sapiens (Human), UniProt Q8NCG7); assay: as above; type: biochemical; conditions: for inhibition at 0.0032 µM: read-out: DAGLβ % inh. 3.2 nM; for inhibition at 0.8 µM: read-out: DAGLβ % inh. 0.8 μM
Chain of DAGLβ (hDAGLβ-FLAG) (Q8NCG7 whole entry): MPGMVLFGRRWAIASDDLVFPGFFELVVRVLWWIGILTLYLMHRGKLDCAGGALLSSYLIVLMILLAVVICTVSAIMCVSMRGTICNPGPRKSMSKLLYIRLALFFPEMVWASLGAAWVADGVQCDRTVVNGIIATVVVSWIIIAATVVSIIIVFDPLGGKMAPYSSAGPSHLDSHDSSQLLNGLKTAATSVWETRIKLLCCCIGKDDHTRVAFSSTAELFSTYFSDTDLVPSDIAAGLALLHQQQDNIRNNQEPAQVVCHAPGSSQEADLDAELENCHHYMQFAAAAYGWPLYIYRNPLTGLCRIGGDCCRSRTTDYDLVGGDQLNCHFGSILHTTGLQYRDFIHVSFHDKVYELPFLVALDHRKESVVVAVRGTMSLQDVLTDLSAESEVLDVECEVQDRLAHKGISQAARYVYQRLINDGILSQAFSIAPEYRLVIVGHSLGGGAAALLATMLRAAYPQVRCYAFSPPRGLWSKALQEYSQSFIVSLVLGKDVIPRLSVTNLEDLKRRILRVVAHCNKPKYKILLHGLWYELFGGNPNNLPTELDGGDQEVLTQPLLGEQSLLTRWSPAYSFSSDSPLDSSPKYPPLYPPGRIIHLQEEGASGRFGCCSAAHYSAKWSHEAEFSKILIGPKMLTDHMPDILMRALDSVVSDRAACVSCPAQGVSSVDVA
Method: as §1, §2, §3, §4

Chain of DAGLα (hDAGLα-FLAG) (Q9Y4D2 whole entry): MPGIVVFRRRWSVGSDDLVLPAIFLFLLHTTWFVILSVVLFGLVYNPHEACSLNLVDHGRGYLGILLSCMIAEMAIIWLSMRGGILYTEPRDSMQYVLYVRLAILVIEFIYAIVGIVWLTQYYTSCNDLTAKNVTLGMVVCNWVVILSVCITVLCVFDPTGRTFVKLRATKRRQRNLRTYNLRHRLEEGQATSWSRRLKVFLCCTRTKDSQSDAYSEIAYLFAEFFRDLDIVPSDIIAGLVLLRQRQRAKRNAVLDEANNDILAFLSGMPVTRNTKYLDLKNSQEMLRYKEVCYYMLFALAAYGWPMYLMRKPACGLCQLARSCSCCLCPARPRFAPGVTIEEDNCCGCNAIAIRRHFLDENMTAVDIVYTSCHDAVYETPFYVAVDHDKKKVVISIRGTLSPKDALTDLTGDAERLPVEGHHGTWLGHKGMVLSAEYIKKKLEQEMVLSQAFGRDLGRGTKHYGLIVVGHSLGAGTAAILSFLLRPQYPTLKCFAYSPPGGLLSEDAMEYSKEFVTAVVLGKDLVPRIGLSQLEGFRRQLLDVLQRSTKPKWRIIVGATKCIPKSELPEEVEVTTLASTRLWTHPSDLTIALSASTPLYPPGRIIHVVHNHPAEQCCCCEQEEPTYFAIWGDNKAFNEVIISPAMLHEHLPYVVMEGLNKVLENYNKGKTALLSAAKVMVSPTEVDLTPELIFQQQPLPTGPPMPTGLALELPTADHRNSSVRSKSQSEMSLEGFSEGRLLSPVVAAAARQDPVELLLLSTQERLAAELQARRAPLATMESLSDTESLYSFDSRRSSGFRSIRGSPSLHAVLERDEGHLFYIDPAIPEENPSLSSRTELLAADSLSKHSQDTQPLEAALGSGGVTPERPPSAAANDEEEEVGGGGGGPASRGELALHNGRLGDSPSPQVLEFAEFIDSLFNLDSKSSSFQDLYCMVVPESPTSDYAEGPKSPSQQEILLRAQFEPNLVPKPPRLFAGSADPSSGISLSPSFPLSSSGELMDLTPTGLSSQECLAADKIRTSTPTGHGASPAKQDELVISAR

Row | Structure (SMILES) | IC50 ([1]; read-out: DAGLα IC50) [nM] | IC50 ([2]; read-out: DAGLβ IC50) [nM] | other results
1 | CN(C)C(=O)c1cccc(-c2ccc(-c3cn(C(=O)N4CCCCC4Cc4ccccc4)nn3)cc2)c1 (stereo not shown) [Compound 76, 4′-(1-(2-benzylpiperidine-1-carbonyl)-1H-1,2,3-triazol-4-yl)-N,N-dimethyl-[1,1′-biphenyl]-3-carboxamide] | 400 to 2000 | > 10000 | –
2 | CC(C)(C)CN(CCc1cccnc1)C(=O)n1cc(-c2ccc(OC(F)(F)F)cc2)nn1 [Compound 134, N-neopentyl-N-(2-(pyridin-3-yl)ethyl)-4-(4-(trifluoromethoxy)phenyl)-1H-1,2,3-triazole-1-carboxamide] | ≤ 400 | ≤ 400 | –
3 | COc1ncnc(OC)c1-c1ccc(-c2cn(C(=O)N3CCCCC3Cc3ccccc3)nn2)cc1 (stereo not shown) [Compound 82, (2-benzylpiperidin-1-yl)(4-(4-(4,6-dimethoxypyrimidin-5-yl)phenyl)-1H-1,2,3-triazol-1-yl)methanone] | ≤ 400 | ≤ 400 | –
4 | O=C(N1CCCC[C@H]1Cc1ccccc1)n1ncc(-c2ccc(OC(F)(F)F)cc2)n1 [Compound 105, (S)-(2-benzylpiperidin-1-yl)(4-(4-(trifluoromethoxy)phenyl)-2H-1,2,3-triazol-2-yl)methanone] | – | – | inhibition at 0.0032 µM [1]: 0 to 25%; inhibition at 0.0032 µM [2]: 0 to 25%
5 | CC(C)C(=O)N1CCN(C(=O)n2cc(-c3ccc(OC(F)(F)F)cc3)nn2)C(Cc2ccccc2)C1 (stereo not shown) [Compound 26, 1-(3-benzyl-4-(4-(4-(trifluoromethoxy)phenyl)-1H-1,2,3-triazole-1-carbonyl)piperazin-1-yl)-2-methylpropan-1-one] | – | – | DAGLα % inh. 0.8 μM ([1]; 0.8 μM (stated under the cell)): * (% inhibition greater than or equal to 0% and less than 25%); inhibition at 0.8 µM ([2]; 0.8 μM (stated under the cell)): 0 to 25%
6 | COc1cc(C(N)=O)cc(OC)c1-c1ccc(-c2cn(C(=O)N3CCCCC3Cc3ccccc3)nn2)cc1 (stereo not shown) [Compound 78, 4′-(1-(2-benzylpiperidine-1-carbonyl)-1H-1,2,3-triazol-4-yl)-2,6-dimethoxy-[1,1′-biphenyl]-4-carboxamide] | 400 to 2000 | > 10000 | –
7 | O=C(N1C[C@H](OCC2CC2)CC[C@@H]1Cc1ccccc1)n1ncc(-c2ccc(OC(F)(F)F)cc2)n1 [Compound 121] | – | – | inhibition at 0.0032 µM [1]: 0 to 25%; inhibition at 0.0032 µM [2]: 0 to 25%
8 | COc1cc(OC)c(-c2ccc(-c3cn(C(=O)N4CCCCC4Cc4ccccc4)nn3)cc2)c(OC)c1 (stereo not shown) [Compound 20, (2-Benzylpiperidin-1-yl)(4-(2′,4′,6′-trimethoxybiphenyl-4-yl)-1H-1,2,3-triazol-1-yl)methanone] | ≤ 400 | ≤ 400 | IC50 ([1]; ABPP method, n=3, read-out: IC50, DAGLα): 16 nM; IC50 ([2]; ABPP method, n=3, read-out: IC50, DAGLβ): 319 nM
9 | O=C(N1CCCCC1COc1ccccc1)n1ncc(-c2ccc(OC(F)(F)F)cc2)n1 (stereo not shown) [Compound 111, (2-(phenoxymethyl)piperidin-1-yl)(4-(4-(trifluoromethoxy)phenyl)-2H-1,2,3-triazol-2-yl)methanone] | – | – | inhibition at 0.0032 µM [1]: 0 to 25%; inhibition at 0.0032 µM [2]: 0 to 25%
10 | C#CCCCC(=O)N1CCN(C(=O)n2cc(-c3ccc(OC(F)(F)F)cc3)nn2)C(Cc2ccccc2)C1 (stereo not shown) [Compound 34, 1-(3-benzyl-4-(4-(4-(trifluoromethoxy)phenyl)-1H-1,2,3-triazole-1-carbonyl)piperazin-1-yl)hex-5-yn-1-one] | – | – | inhibition at 0.8 µM ([1]; 0.8 μM (stated under the cell), read-out: DAGLα % inh. 0.8 μM): 25 to 50%; inhibition at 0.8 µM ([2]; 0.8 μM (stated under the cell)): 0 to 25%
11 | O=C(N1C[C@H](O)C=C[C@@H]1COCc1ccccc1)n1ncc(-c2ccc(OC(F)(F)F)cc2)n1 [Compound 51, ((3R,6R)-6-((Benzyloxy)methyl)-3-hydroxy-3,6-dihydropyridin-1(2H)-yl)(4-(4-(trifluoromethoxy)phenyl)-2H-1,2,3-triazol-2-yl)methanone] | – | – | inhibition at 0.0032 µM [1]: 0 to 25%; inhibition at 0.0032 µM [2]: 0 to 25%
12 | COc1cc(OC)c(-c2ccc(-c3cn(C(=O)N4CCCCC4Cc4ccccc4)nn3)cn2)c(OC)c1 (stereo not shown) [Compound 74, (2-benzylpiperidin-1-yl)(4-(6-(2,4,6-trimethoxyphenyl)pyridin-3-yl)-1H-1,2,3-triazol-1-yl)methanone] | ≤ 400 | 2000 to 10000 | –
13 | COc1cnnc(OC)c1-c1ccc(-c2cn(C(=O)N3CCCCC3Cc3ccccc3)nn2)cc1 (stereo not shown) [Compound 83, (2-benzylpiperidin-1-yl)(4-(4-(3,5-dimethoxypyridazin-4-yl)phenyl)-1H-1,2,3-triazol-1-yl)methanone] | ≤ 400 | 2000 to 10000 | –
14 | O=C(N1CCCCC1COc1ccccc1)n1cc(-c2ccc(OC(F)(F)F)cc2)nn1 (stereo not shown) [Compound 110, (2-(phenoxymethyl)piperidin-1-yl)(4-(4-(trifluoromethoxy)phenyl)-1H-1,2,3-triazol-1-yl)methanone] | – | – | inhibition at 0.0032 µM [1]: 0 to 25%; inhibition at 0.0032 µM [2]: 0 to 25%
15 | O=C(N1C[C@H](O)C=C[C@@H]1COCc1ccccc1)n1cc(-c2ccc(OC(F)(F)F)cc2)nn1 [Compound 50, ((3R,6R)-6-((Benzyloxy)methyl)-3-hydroxy-3,6-dihydropyridin-1(2H)-yl)(4-(4-(trifluoromethoxy)phenyl)-1H-1,2,3-triazol-1-yl)methanone] | – | – | inhibition at 0.0032 µM [1]: 0 to 25%; inhibition at 0.0032 µM [2]: 0 to 25%
16 | COc1cc(C(=O)N2CCCC2)cc(OC)c1-c1ccc(-c2cn(C(=O)N3CCCCC3Cc3ccccc3)nn2)cc1 (stereo not shown) [Compound 81, (2-benzylpiperidin-1-yl)(4-(2′,6′-dimethoxy-4′-(pyrrolidine-1-carbonyl)-[1,1′-biphenyl]-4-yl)-1H-1,2,3-triazol-1-yl)methanone] | 400 to 2000 | > 10000 | –
17 | CC(C)(C)CN(CCc1ccncc1)C(=O)n1cc(-c2ccc(OC(F)(F)F)cc2)nn1 [Compound 132, N-neopentyl-N-(2-(pyridin-4-yl)ethyl)-4-(4-(trifluoromethoxy)phenyl)-1H-1,2,3-triazole-1-carboxamide] | ≤ 400 | ≤ 400 | –
18 | O=C(N1CCCCC1Cc1ccccc1)n1cc(-c2ccc([N+](=O)[O-])cc2)nn1 (stereo not shown) [Compound 89, (2-benzylpiperidin-1-yl)(4-(4-nitrophenyl)-1H-1,2,3-triazol-1-yl)methanone] | ≤ 400 | ≤ 400 | –
19 | O=C(N1CCCCC1Cc1ccccc1)n1cc(-c2ccc(Br)nc2)nn1 (stereo not shown) [Compound 90, (2-benzylpiperidin-1-yl)(4-(6-bromopyridin-3-yl)-1H-1,2,3-triazol-1-yl)methanone] | ≤ 400 | ≤ 400 | –
20 | COc1cc(Cl)cc(OC)c1-c1ccc(-c2cn(C(=O)N3CCCCC3Cc3ccncc3)nn2)cc1 (stereo not shown) [Compound 69, (4-(4′-chloro-2′,6′-dimethoxy-[1,1′-biphenyl]-4-yl)-1H-1,2,3-triazol-1-yl)(2-(pyridin-4-ylmethyl)piperidin-1-yl)methanone] | ≤ 400 | 2000 to 10000 | –
21 | CC(C)(C)OC(=O)N1CCN(C(=O)n2cc(-c3ccc(OC(F)(F)F)cc3)nn2)[C@H](Cc2ccccc2)C1 [Compound 100, tert-butyl (R)-3-benzyl-4-(4-(4-(trifluoromethoxy)phenyl)-1H-1,2,3-triazole-1-carbonyl)piperazine-1-carboxylate] | – | – | inhibition at 0.4 µM ([1]; 0.4 μM, read-out: DAGLα % inh. 0.4 μM): ≥ 75%; inhibition at 0.4 µM ([2]; read-out: DAGLβ % inh. 0.4 μM): ≥ 75%
22 | O=C(N1CCCCC1Cc1ccccc1)n1cc(-c2ccc(-c3c(F)cncc3F)cc2)nn1 (stereo not shown) [Compound 72, (2-benzylpiperidin-1-yl)(4-(4-(3,5-difluoropyridin-4-yl)phenyl)-1H-1,2,3-triazol-1-yl)methanone] | 400 to 2000 | 400 to 2000 | –
23 | O=C(N1CCC=C[C@@H]1COCc1ccccc1)n1ncc(-c2ccc(OC(F)(F)F)cc2)n1 [Compound 107, (R)-(6-((benzyloxy)methyl)-3,6-dihydropyridin-1(2H)-yl)(4-(4-(trifluoromethoxy)phenyl)-2H-1,2,3-triazol-2-yl)methanone] | – | – | inhibition at 0.0032 µM [1]: 0 to 25%; inhibition at 0.0032 µM [2]: 0 to 25%
24 | CC(C)C(=O)N1CCN(C(=O)n2cc(-c3ccc(OC(F)(F)F)cc3)nn2)C(Cc2ccccc2)C1 (stereo not shown) [Compound 30, 1-(3-benzyl-4-(4-(4-(trifluoromethoxy)phenyl)-1H-1,2,3-triazole-1-carbonyl)piperazin-1-yl)-2-methylpropan-1-one] | – | – | DAGLα % inh. 0.8 μM ([1]; 0.8 μM (stated under the cell)): *** (% inhibition greater than or equal to 50% and less than 75%); DAGLβ % inh. 0.8 μM ([2]; 0.8 μM (stated under the cell)): * (% inhibition greater than or equal to 0% and less than 25%)
25 | O=C(N(CCc1ccccc1)CC1CC1)n1ncc(-c2ccc(OC(F)(F)F)cc2)n1 [Compound 131, N-(cyclopropylmethyl)-N-phenethyl-4-(4-(trifluoromethoxy)phenyl)-2H-1,2,3-triazole-1-carboxamide] | 2000 to 10000 | 400 to 2000 | –
